# Laboratory results taken from US10968236B2, “TYK2 inhibitors and uses thereof” (Nimbus Lakshmi, Inc., priority 2015, dated 2021).
# Legend:
# JAK2 = JAK2 (Homo sapiens (Human), UniProt O60674); test: JAK2 activity inhibition assay (radioactive kinase / Caliper assay); type: biochemical
# Description: (§1) Peptide substrate, [KKSRGDYMTMQIG], (20 μM) is prepared in reaction buffer (20 mM Hepes pH 7.5, 10 mM MgCl2, 1 mM EGTA, 0.02% Brij35, 0.02 mg/mL BSA, 0.1 mM […], 2 mM DTT, 1% DMSO. TYK2 (Invitrogen) kinase is added, followed by compounds in DMSO. 33PATP is added to initiate the reaction in ATP at 10 μM. Kinase reaction is incubated for 120 min at room temp and reactions are spotted onto P81 ion exchange paper (Whatman #3698-915), and then washed extensively in 0.75% phosphoric acid, prior to reading the radioactivity counts. For JAK2 (Invitrogen) kinase assay the peptide substrate poly[Glu:Tyr] (4:1), 0.2 mg/ml is used, in the reaction carried out the same as for TYK2.
# (§2) The caliper machine employs an off chip mobility shift assay to detect phosphorylated peptide substrates from kinase assays, using microfluidics technology. The assays are carried out at ATP concentration equivalent to the ATP Km, and at 1 mM ATP. Compounds are serially diluted in DMSO then further diluted in assay buffer (25 mM HEPES, pH 7.5, 0.01% Brij-35, 0.01% Triton, 0.5 mM EGTA). 5 ul of diluted compound was added into wells first, then 10 ul of enzyme mix was added into wells, followed by 10 uL of substrate mix (peptide and ATP in 10 mM MgCl2) to start reaction. Reaction was incubated at 28° C. for 25 min and then added 25 ul stop buffer (100 mM HEPES, 0.015% Brij-35, 50 mM EDTA), followed by reading with Caliper. JAK2 at 1 nM final concentration and TYK2 at 9.75 nM are from Carna, and substrates used are ATP at 20 and 16 uM, respectively. JAK2 assay uses peptide 22 and TYK2 uses peptide 30 (Caliper), each at 3 uM.
# (§3) The compound numbers correspond to the compound numbers in Table 1. Compounds having an activity designated as “A” provided an Ki≤0.01 μM; compounds having an activity designated as “B” provided an Ki of 0.01-0.1 μM; compounds having an activity designated as “C” provided an Ki of 0.1-1.0 μM; and compounds having an activity designated as “D” provided an Ki≥1.0 μM.
# TYK2 = TYK2 (Homo sapiens (Human), UniProt P29597); test: Tyk2 activity inhibition assay (radioactive kinase / Caliper assay); type: biochemical
# TYK2, sequence (P29597 whole entry): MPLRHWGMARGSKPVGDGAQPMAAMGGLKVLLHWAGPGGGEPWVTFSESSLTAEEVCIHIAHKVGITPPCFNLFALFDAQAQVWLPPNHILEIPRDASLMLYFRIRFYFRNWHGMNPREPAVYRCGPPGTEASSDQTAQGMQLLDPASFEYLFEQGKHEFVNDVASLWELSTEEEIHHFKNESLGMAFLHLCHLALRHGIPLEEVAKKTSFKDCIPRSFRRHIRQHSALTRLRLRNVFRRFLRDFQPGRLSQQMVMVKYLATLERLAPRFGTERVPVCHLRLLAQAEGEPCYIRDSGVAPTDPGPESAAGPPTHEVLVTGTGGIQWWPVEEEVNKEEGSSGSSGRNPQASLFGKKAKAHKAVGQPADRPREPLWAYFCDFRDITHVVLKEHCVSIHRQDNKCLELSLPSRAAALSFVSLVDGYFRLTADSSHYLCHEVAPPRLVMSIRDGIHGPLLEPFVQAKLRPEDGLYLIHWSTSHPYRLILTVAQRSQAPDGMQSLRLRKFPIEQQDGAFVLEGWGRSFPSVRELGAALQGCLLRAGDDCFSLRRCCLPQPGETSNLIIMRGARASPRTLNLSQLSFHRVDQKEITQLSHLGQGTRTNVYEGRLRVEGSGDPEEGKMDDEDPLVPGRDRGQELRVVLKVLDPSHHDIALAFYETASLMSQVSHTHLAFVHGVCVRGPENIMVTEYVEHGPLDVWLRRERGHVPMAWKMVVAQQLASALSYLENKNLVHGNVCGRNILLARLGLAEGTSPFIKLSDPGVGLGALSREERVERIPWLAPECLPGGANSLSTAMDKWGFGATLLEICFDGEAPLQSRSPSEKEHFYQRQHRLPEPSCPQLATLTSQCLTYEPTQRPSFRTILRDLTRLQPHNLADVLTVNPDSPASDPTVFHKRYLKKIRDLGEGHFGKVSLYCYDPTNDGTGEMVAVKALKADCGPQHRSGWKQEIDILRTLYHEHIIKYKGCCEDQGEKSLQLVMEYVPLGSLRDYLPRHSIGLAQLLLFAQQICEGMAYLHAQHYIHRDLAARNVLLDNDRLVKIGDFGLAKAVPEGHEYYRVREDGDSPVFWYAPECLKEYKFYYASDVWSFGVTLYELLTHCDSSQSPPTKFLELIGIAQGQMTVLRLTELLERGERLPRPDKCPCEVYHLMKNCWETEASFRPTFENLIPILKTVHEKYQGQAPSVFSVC
# Description: as §1, §2, §3
# JAK2, sequence (O60674 whole entry): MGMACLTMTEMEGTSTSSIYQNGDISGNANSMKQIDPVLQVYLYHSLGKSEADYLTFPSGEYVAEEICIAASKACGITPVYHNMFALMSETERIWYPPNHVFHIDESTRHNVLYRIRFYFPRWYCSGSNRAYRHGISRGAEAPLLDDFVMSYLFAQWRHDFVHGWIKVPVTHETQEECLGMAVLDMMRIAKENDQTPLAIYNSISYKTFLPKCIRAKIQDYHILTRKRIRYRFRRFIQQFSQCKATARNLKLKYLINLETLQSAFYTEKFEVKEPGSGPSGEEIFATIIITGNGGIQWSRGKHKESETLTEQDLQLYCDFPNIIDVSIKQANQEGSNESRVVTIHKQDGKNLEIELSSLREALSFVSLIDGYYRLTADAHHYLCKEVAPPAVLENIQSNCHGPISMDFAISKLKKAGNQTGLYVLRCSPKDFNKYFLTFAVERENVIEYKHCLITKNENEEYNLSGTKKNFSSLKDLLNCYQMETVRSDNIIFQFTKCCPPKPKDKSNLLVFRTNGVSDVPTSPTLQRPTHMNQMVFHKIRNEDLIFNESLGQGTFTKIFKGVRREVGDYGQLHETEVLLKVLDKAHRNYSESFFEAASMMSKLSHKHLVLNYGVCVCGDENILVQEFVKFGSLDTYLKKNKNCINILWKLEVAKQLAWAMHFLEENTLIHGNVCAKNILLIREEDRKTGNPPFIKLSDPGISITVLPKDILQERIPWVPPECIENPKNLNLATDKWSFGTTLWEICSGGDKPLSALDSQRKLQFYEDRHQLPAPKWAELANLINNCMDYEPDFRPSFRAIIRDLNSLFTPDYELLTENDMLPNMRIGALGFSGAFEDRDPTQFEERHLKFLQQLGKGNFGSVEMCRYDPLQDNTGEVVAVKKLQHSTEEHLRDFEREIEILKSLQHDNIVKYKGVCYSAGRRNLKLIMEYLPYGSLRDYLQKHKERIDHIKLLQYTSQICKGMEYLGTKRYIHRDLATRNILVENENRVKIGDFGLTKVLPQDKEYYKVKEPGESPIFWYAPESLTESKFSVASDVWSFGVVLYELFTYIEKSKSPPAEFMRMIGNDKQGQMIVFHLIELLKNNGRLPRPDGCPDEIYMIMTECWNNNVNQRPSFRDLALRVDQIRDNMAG
Ki (JAK2) [nM],Ki (TYK2) [nM],Structure (SMILES)
≤ 10,≤ 10,"O=C1NCc2nc(-c3c(F)cccc3F)cc(Nc3ccc(N4CCOCC45CC5)cn3)c21 [Compound I-47, 4-((5-(7-oxa-4-azaspiro[2.5]octan-4-yl)pyridin-2-yl)amino)-2-(2,6-difluorophenyl)-6,7-dihydro-5H-pyrrolo[3,4-b]pyridin-5-one]"
10 to 100,≤ 10,"N#Cc1cccc(F)c1-c1cc(Nc2ccc(N3C[C@H]4COC[C@H]4C3)cn2)c2c(n1)CNC2=O [Compound I-76, 3-fluoro-2-(5-oxo-4-((5-((3aR,6aS)-tetrahydro-1H-furo[3,4-c]pyrrol-5(3H)-yl)pyridin-2-yl)amino)-6,7-dihydro-5H-pyrrolo[3,4-b]pyridin-2-yl)benzonitrile]"
100 to 1000,≤ 10,"N#Cc1cccc(F)c1-c1cc(Nc2ccc(N3C[C@H]4COC[C@H]4C3)nc2)c2c(n1)CNC2=O [Compound I-74, 3-fluoro-2-(5-oxo-4-((6-((3aR,6aS)-tetrahydro-1H-furo[3,4-c]pyrrol-5(3H)-yl)pyridin-3-yl)amino)-6,7-dihydro-5H-pyrrolo[3,4-b]pyridin-2-yl)benzonitrile]"
100 to 1000,≤ 10,"O=C1NCc2nc(-c3c(F)cccc3F)nc(Nc3ccc(C(O)C(F)(F)F)cc3)c21 (stereo not drawn) [Compound I-29, 2-(2,6-difluorophenyl)-4-((4-(2,2,2-trifluoro-1-hydroxy-ethyl)phenyl)amino)-6,7-dihydro-5H-pyrrolo[3,4-d]pyrimidin-5-one]"
100 to 1000,10 to 100,"CN1C(=O)C(C)(c2ccc(Nc3nc(-c4c(F)cccc4F)nc4c3C(=O)NC4)cc2)c2ccccc21 (stereo not drawn) [Compound I-48, 2-(2,6-difluorophenyl)-4-((4-(1,3-dimethyl-2-oxoindolin-3-yl)phenyl)amino)-6,7-dihydro-5H-pyrrolo[3,4-d]pyrimidin-5-one]"
10 to 100,≤ 10,"CN1CCc2cc(Nc3cc(-c4c(F)cccc4F)nc4c3C(=O)NC4)ccc2C1=O [Compound I-64, 6-((2-(2,6-difluorophenyl)-5-oxo-6,7-dihydro-5H-pyrrolo[3,4-b]pyridin-4-yl)amino)-2-methyl-3,4-dihydroisoquinolin-1 (2H)-one]"
≤ 10,≤ 10,"O=C1NCc2nc(-c3c(F)cccc3F)cc(Nc3ccc(C(=O)N4CCOCC45CC5)cc3)c21 [Compound I-51, 4-((4-(7-oxa-4-azaspiro[2.5]octane-4-carbonyl)phenyl)amino)-2-(2,6-difluorophenyl)-6,7-dihydro-5H-pyrrolo[3,4-b]pyridin-5-one]"
100 to 1000,10 to 100,"O=C1NCc2nc(-n3c(F)cccc3=O)cc(Nc3ccc(N4CCOCC4)cn3)c21 [Compound I-56, 2-(6-fluoro-2-oxopyridin-1(2H)-yl)-4-((5-morpholinopyridin-2-yl)amino)-6,7-dihydro-5H-pyrrolo[3,4-b]pyridin-5-one]"
≤ 10,≤ 10,"N#Cc1cccc(F)c1-c1cc(Nc2ccc(N3CC4(CC4)C(O)C4(CC4)C3)cn2)c2c(n1)CNC2=O [Compound I-87, 3-fluoro-2-(4-((5-(4-hydroxy-9-azadispiro[2.1.25.33]decan-9-yl)pyridin-2-yl)amino)-5-oxo-6,7-dihydro-5H-pyrrolo [3,4-b]pyridin-2-yl)benzonitrile]"
≥ 1000,10 to 100,"O=C1NCc2nc(-c3c(F)cccc3F)cc(Nc3ccc(N4C[C@H]5COC[C@H]5C4)nc3)c21 [Compound I-73, 2-(2,6-difluorophenyl)-4-((6-((3aR,6aS)-tetrahydro-1H-furo[3,4-c]pyrrol-5(3H)-yl)pyridin-3-yl)amino)-6,7-dihydro-5H-pyrrolo[3,4-b]pyridin-5-one]"
≤ 10,≤ 10,"CC1(c2ccc(Nc3cc(-c4c(F)cccc4F)nc4c3C(=O)NC4)nc2)CC(C)(C)N(C2=CCOCC2)C1=O (stereo not drawn) [Compound I-55, 2-(2,6-difluorophenyl)-4-((5-(1-(3,6-dihydro-2H-pyran-4-yl)-3,5,5-trimethyl-2-oxopyrrolidin-3-yl)pyridin-2-yl)amino)-6,7-dihydro-5H-pyrrolo[3,4-b]pyridin-5-one]"
100 to 1000,≤ 10,"O=C1NCc2nc(-c3c(F)cccc3F)nc(Nc3ccc(C(=O)N4CC5CCC(C4)O5)cc3)c21 [Compound I-5, 4-((4-(8-oxa-3-azabicyclo[3.2.1]octane-3-carbonyl)phenyl)-amino)-2-(2,6-difluorophenyl)-6,7-dihydro-5H-pyrrolo[3,4-d]pyrimidin-5-one]"

# Continued, molecule first:
Structure (SMILES),Ki (JAK2) [nM],Ki (TYK2) [nM]
"O=C1NCc2nc(-c3c(F)cccc3F)cc(Nc3ccc4c(n3)NCC4)c21 [Compound I-22, 2-(2,6-difluorophenyl)-4-((2,3-dihydro-1H-pyrrolo[2,3-b]pyridin-6-yl)amino)-6,7-dihydro-5H-pyrrolo[3,4-b]pyridin-5-one]",10 to 100,≤ 10
"CC(N)(C(=O)O)c1ccc(Nc2nc(-c3c(F)cccc3F)nc3c2C(=O)NC3)cc1 (stereo not drawn) [Compound I-32, 2-amino-2-(4-((2-(2,6-difluorophenyl)-5-oxo-6,7-dihydro-5H-pyrrolo[3,4-d]pyrimidin-4-yl)amino)phenyl)propanoic acid]",≥ 1000,≤ 10
"CC1(C)COc2nc(Nc3cc(-c4c(F)cccc4C#N)nc4c3C(=O)NC4)ccc21 [Compound I-85, 2-(4-((3,3-dimethyl-2,3-dihydrofuro[2,3-b]pyridin-6-yl)amino)-5-oxo-6,7-dihydro-5H-pyrrolo[3,4-b]pyridin-2-yl)-3-fluorobenzonitrile]",≥ 1000,≥ 1000
"O=C1NCc2nc(-c3c(F)cccc3F)cc(Nc3ccc(C(=O)N4CCOC5(CC5)C4)cc3)c21 [Compound I-50, 4-((4-(4-oxa-7-azaspiro[2.5]octane-7-carbonyl)phenyl)amino)-2-(2,6-difluorophenyl)-6,7-dihydro-5H-pyrrolo[3,4-b]pyridin-5-one]",10 to 100,≤ 10
"C[C@@](O)(C(=O)O)c1ccc(Nc2nc(-c3c(F)cccc3F)nc3c2C(=O)NC3)cc1 [Compound I-7, (S)-2-(4-((2-(2,6-difluorophenyl)-5-oxo-6,7-dihydro-5H-pyrrolo[3,4-d]pyrimidin-4-yl)amino)phenyl)-2-hydroxypropanoic acid]",100 to 1000,≤ 10
"CC1(C)Cc2ccc(Nc3nc(-c4c(F)cccc4F)nc4c3C(=O)NC4)cc2N1 [Compound I-3, 2-(2,6-difluorophenyl)-4-((2,2-dimethylindolin-6-yl)amino)-6,7-dihydro-5H-pyrrolo[3,4-d]pyrimidin-5-one]",100 to 1000,≤ 10
"O=C1NCc2nc(-c3c(F)cccc3F)cc(Nc3ccc4c(c3)CS(=O)(=O)C4)c21 [Compound I-86, 2-(2,6-difluorophenyl)-4-((2,2-dioxido-1,3-dihydro-benzo[c]thio-phen-5-yl)amino)-6,7-dihydro-5H-pyrrolo[3,4-b]pyridin-5-one]",10 to 100,≤ 10
"O=C1NCc2nc(-c3c(F)cccc3F)cc(Nc3ccc4c(c3)OC3(CC3)C4=O)c21 [Compound I-77, 2-(2,6-difluorophenyl)-4-((3-oxo-3H-spiro[benzofuran-2,1′-cyclopropan]-6-yl)amino)-6,7-dihydro-5H-pyrrolo[3,4-b]pyridin-5-one]",10 to 100,≤ 10
"CC(O)(c1ccc(Nc2nc(-c3c(F)cccc3F)nc3c2C(=O)NC3)cc1)C(F)(F)F (stereo not drawn) [Compound I-33, 2-(2,6-difluorophenyl)-4-((4-(1,1,1-trifluoro-2-hydroxy-propan-2-yl)phenyl)amino)-6,7-dihydro-5H-pyrrolo[3,4-d]pyrimidin-5-one]",100 to 1000,≤ 10
"O=C1NCc2nc(-c3c(F)cccc3F)cc(Nc3ccc(C(=O)N4C[C@H]5COC[C@H]5C4)cc3)c21 [Compound I-63, 2-(2,6-difluorophenyl)-4-((4-((3aR,6aS)-hexahydro-1H-furo[3,4-c]pyrrole-5-carbonyl)phenyl)amino)-6,7-dihydro-5H-pyrrolo[3,4-b]pyridin-5-one]",10 to 100,≤ 10
"CC1(C)Cc2ccc(Nc3cc(-c4c(F)cccc4F)nc4c3C(=O)NC4)cc2O1 [Compound I-71, 2-(2,6-difluorophenyl)-4-((2,2-dimethyl-2,3-dihydrobenzofuran-6-yl)amino)-6,7-dihydro-5H-pyrrolo[3,4-b]pyridin-5-one]",100 to 1000,10 to 100
"O=C1NCc2nc(-c3c(F)cccc3F)cc(Nc3ccc4c(c3)OC(F)(F)O4)c21 [Compound I-69, 4-((2,2-difluorobenzo[d][1,3]dioxol-5-yl)amino)-2-(2,6-difluoro-phenyl)-6,7-dihydro-5H-pyrrolo[3,4-b]pyridin-5-one]",≥ 1000,10 to 100
